Laboratory results published in PubChem BioAssay AID1963843 (Molecular Pharmacology Branch, DTP, NCI, 2024).

System: 616215-338-R-J1-PDC complex spheroid viability
Experiment: Anticancer human tumor 616215-338-R-J1-PDC patient-derived colon adenocarcinoma cell line growth inhibition [POLQ]
Settings: for IC50: curve of first compound; for viability, T/C: stronger effect = lower value
Method in brief: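 PDC + HUVEC + MSC complex spheroids; POLQ inhibitors ± partner drugs; top conc. at/near clinical Cmax, else 10 microM (SN-38 1 microM), half-log dilutions; 37 degrees C, 5% CO2.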
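Note: spheroids exposed to compounds for one week before readout.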
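Throughout, for viability, T/C: percent viability relative to DMSO vehicle wells taken as 100%.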

Cn1ncnc1[C@H]1c2n[nH]c(=O)c3cc(F)cc(c23)N[C@@H]1c1ccc(F)cc1 + COC1C(OC(N)=O)C(O)C(Oc2ccc3c(O)c(NC(=O)c4ccc(O)c(CC=C(C)C)c4)c(=O)oc3c2C)OC1(C)C
IC50 (second compound 0.0316 µM): > 100 nM
IC50 (second compound 0.1 µM): > 100 nM
IC50 (second compound 0.316 µM): > 100 nM
IC50 (second compound 1 µM): > 100 nM
IC50 (second compound 3.16 µM): > 100 nM
IC50 (second compound 10 µM): > 100 nM
viability, T/C (second compound 0.0316 µM, first compound 0.000316 µM): 103%
viability, T/C (second compound 0.0316 µM, first compound 0.001 µM): 107%
viability, T/C (second compound 0.0316 µM, first compound 0.00316 µM): 105%
viability, T/C (second compound 0.0316 µM, first compound 0.01 µM): 107%
viability, T/C (second compound 0.0316 µM, first compound 0.0316 µM): 102%
viability, T/C (second compound 0.0316 µM, first compound 0.1 µM): 102%
viability, T/C (second compound 0.1 µM, first compound 0.000316 µM): 97.2%
viability, T/C (second compound 0.1 µM, first compound 0.001 µM): 90.8%
viability, T/C (second compound 0.1 µM, first compound 0.00316 µM): 102%
viability, T/C (second compound 0.1 µM, first compound 0.01 µM): 103%
viability, T/C (second compound 0.1 µM, first compound 0.0316 µM): 101%
viability, T/C (second compound 0.1 µM, first compound 0.1 µM): 109%
viability, T/C (second compound 0.316 µM, first compound 0.000316 µM): 95.5%
viability, T/C (second compound 0.316 µM, first compound 0.001 µM): 106%
viability, T/C (second compound 0.316 µM, first compound 0.00316 µM): 98.9%
viability, T/C (second compound 0.316 µM, first compound 0.01 µM): 104%
viability, T/C (second compound 0.316 µM, first compound 0.0316 µM): 109%
viability, T/C (second compound 0.316 µM, first compound 0.1 µM): 95.9%
viability, T/C (second compound 1 µM, first compound 0.000316 µM): 106%
viability, T/C (second compound 1 µM, first compound 0.001 µM): 95.7%
viability, T/C (second compound 1 µM, first compound 0.00316 µM): 108%
viability, T/C (second compound 1 µM, first compound 0.01 µM): 105%
viability, T/C (second compound 1 µM, first compound 0.0316 µM): 107%
viability, T/C (second compound 1 µM, first compound 0.1 µM): 104%
viability, T/C (second compound 3.16 µM, first compound 0.000316 µM): 109%
viability, T/C (second compound 3.16 µM, first compound 0.001 µM): 98.5%
viability, T/C (second compound 3.16 µM, first compound 0.00316 µM): 102%
viability, T/C (second compound 3.16 µM, first compound 0.01 µM): 101%
viability, T/C (second compound 3.16 µM, first compound 0.0316 µM): 102%
viability, T/C (second compound 3.16 µM, first compound 0.1 µM): 105%
viability, T/C (second compound 10 µM, first compound 0.000316 µM): 105%
viability, T/C (second compound 10 µM, first compound 0.001 µM): 101%
viability, T/C (second compound 10 µM, first compound 0.00316 µM): 103%
viability, T/C (second compound 10 µM, first compound 0.01 µM): 117%
viability, T/C (second compound 10 µM, first compound 0.0316 µM): 105%
viability, T/C (second compound 10 µM, first compound 0.1 µM): 97.1%
